In ChEMBL document CHEMBL1201862, “PubChem BioAssay data set” (2004):
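Step 1: Grow cells in 96-well plates. Step 2: Expose to compound for 48 hours at 5 concentrations. Step 3: Interpolate endpoints linearly; if unreached, use highest concentration. At the GI50, growth is halved.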 Calls of active or inactive are those of the source. Rule as the data show it: active = GI50 up to about 1.1 µM and inactive = higher.

Columns and labels:
Experiment in all cases: DTP human tumour cell line panel, 48 h
[1] = tested on: OVCAR-4
[2] = tested on: SW-620
[3] = tested on: SK-MEL-5
[4] = tested on: HCT-116
[5] = tested on: UACC-62
[6] = tested on: MDA-MB-231
[7] = tested on: PC-3
[8] = tested on: SNB-75
[9] = tested on: SK-OV-3
[10] = tested on: NCI-H522
[11] = tested on: SN12C
[12] = tested on: BT-549
[13] = tested on: M14
[14] = tested on: HOP-92
[15] = tested on: UACC-257
[16] = tested on: SR
[17] = tested on: SF-539
[18] = tested on: CAKI-1
[19] = tested on: Malme-3M
[20] = tested on: A498

Measured: GI50

COc1cccc(-c2nc(-c3cnccn3)n(Cc3ccccc3)n2)c1
inactive: [1] 21.6 µM | [2] > 100 µM | [3] 89.3 µM | [4] > 100 µM | [5] 91.4 µM | [6] > 100 µM | [7] > 100 µM | [8] 24.4 µM | [9] 75.9 µM | [10] 52.1 µM | [11] > 100 µM | [12] > 100 µM | [13] > 100 µM | [14] 26.5 µM | [15] > 100 µM | [16] > 100 µM | [17] 85.1 µM

C=CCCC1(O)C(O)C(CO)O[C@H](O[C@@]2(CO)OC(CO)C(O)C2O)C1O (stereo partly drawn)
inactive: [1] > 100 µM | [2] > 100 µM | [18] > 100 µM | [3] > 100 µM | [19] > 100 µM | [4] > 100 µM | [6] > 100 µM | [7] > 100 µM | [8] > 100 µM | [10] > 100 µM | [11] > 100 µM | [12] > 100 µM | [13] > 100 µM | [14] > 100 µM | [15] > 100 µM | [16] > 100 µM | [17] > 100 µM

Nc1nc(Cl)cc(NCC2(CCO)CCC2)n1
inactive: [1] > 100 µM | [2] > 100 µM | [18] > 100 µM | [3] > 100 µM | [19] > 100 µM | [4] > 100 µM | [5] > 10 µM | [6] > 100 µM | [7] > 100 µM | [8] > 10 µM | [9] > 100 µM | [10] > 100 µM | [11] > 100 µM | [12] 32.7 µM | [14] > 100 µM | [15] > 100 µM | [16] > 100 µM | [17] > 100 µM

CCC(=O)OCN(C)c1nc(N(C)COC(=O)CC)nc(N(C)COC(=O)CC)n1
inactive: [1] 30.5 µM | [2] 26.9 µM | [18] 63.8 µM | [3] 22.9 µM | [19] 32.6 µM | [4] 22.9 µM | [5] 18.6 µM | [6] 57.4 µM | [7] 27.4 µM | [8] > 100 µM | [9] > 100 µM | [11] 39.8 µM | [12] 32.9 µM | [13] 28.1 µM | [20] 49 µM | [14] 89.5 µM | [15] 38.9 µM | [16] 26.7 µM

OCCN1c2ccccc2Sc2ccccc21
inactive: [1] > 10 µM | [2] > 10 µM | [18] > 10 µM | [3] > 10 µM | [19] > 10 µM | [4] > 10 µM | [6] > 10 µM | [7] > 10 µM | [8] > 10 µM | [9] > 10 µM | [10] > 10 µM | [11] > 10 µM | [12] > 10 µM | [13] > 10 µM | [14] > 10 µM | [15] > 10 µM | [16] > 10 µM | [17] > 10 µM

CN1c2ccccc2SC2C(c3ccccc3)=NOC21 (stereo not drawn)
inactive: [1] 65.8 µM | [2] 25.1 µM | [18] 40.6 µM | [3] > 10 µM | [19] 8.39 µM | [4] 23.7 µM | [5] 35.1 µM | [6] 27 µM | [7] 18 µM | [8] 16 µM | [9] 64.1 µM | [10] 30.1 µM | [11] 47.8 µM | [12] 26.6 µM | [13] 38.2 µM | [20] 28.4 µM | [15] > 10 µM | [16] 62.1 µM | [17] 27.7 µM

CCOC(=O)CNC(=O)C(CSCc1ccc(Br)cc1)NC(=O)CCC(N)C(=O)OCC (stereo not drawn)
inactive: [1] > 50 µM | [2] > 50 µM | [18] > 50 µM | [3] > 50 µM | [4] > 50 µM | [5] > 50 µM | [6] > 50 µM | [7] > 50 µM | [8] > 50 µM | [9] > 50 µM | [10] > 50 µM | [11] > 50 µM | [12] > 50 µM | [13] > 50 µM | [14] > 50 µM | [15] > 50 µM | [16] > 50 µM | [17] > 50 µM

O=c1cc(N2CCCC2)[nH]c(=O)n1-c1ccccc1
inactive: [1] > 100 µM | [2] > 100 µM | [18] > 100 µM | [3] > 100 µM | [19] > 100 µM | [4] > 100 µM | [6] > 100 µM | [7] > 100 µM | [8] > 100 µM | [10] > 100 µM | [11] > 100 µM | [12] > 100 µM | [13] > 100 µM | [14] > 100 µM | [15] > 100 µM | [16] > 100 µM | [17] > 100 µM

NCC(=O)N[C@H]1c2ccsc2/C(=N/O)[C@H]1O
inactive: [1] 68.9 µM | [2] > 100 µM | [18] > 100 µM | [3] > 100 µM | [19] > 100 µM | [4] > 100 µM | [5] > 100 µM | [6] > 100 µM | [7] > 100 µM | [9] > 100 µM | [11] > 100 µM | [12] > 100 µM | [13] > 100 µM | [20] > 100 µM | [14] > 100 µM | [15] > 100 µM | [16] > 100 µM | [17] > 100 µM

CN(C)c1nc(-c2ccccc2)c(C(=O)c2c[nH]c3ccccc23)s1
inactive: [1] 17.4 µM | [2] 5.24 µM | [18] 9.4 µM | [3] 8.57 µM | [19] 11.2 µM | [4] 3.88 µM | [5] 6.05 µM | [6] 14.5 µM | [7] > 31.3 µM | [8] 2.67 µM | [9] 7.6 µM | [10] 2.76 µM | [11] 18.2 µM | [12] > 100 µM | [13] 4.59 µM | [20] 9.98 µM | [15] 6.71 µM | [16] 1.54 µM | [17] 10.7 µM

CC(=O)OCc1ccc(-c2nc(C#N)c(N)o2)o1
inactive: [1] > 10 µM | [2] > 10 µM | [18] > 10 µM | [3] > 10 µM | [19] > 10 µM | [4] > 10 µM | [5] > 10 µM | [6] > 10 µM | [7] > 10 µM | [8] > 10 µM | [9] > 10 µM | [10] > 10 µM | [11] > 10 µM | [12] > 10 µM | [13] > 10 µM | [14] > 10 µM | [15] > 10 µM | [16] > 10 µM | [17] > 10 µM
